Legend:
Format in all cases: in vivo
[1] = tested on: large crabgrass (Digitaria sanguinalis, DIGSA); assay: Pre-emerge test, greenhouse herbicide activity screening; conditions: Digitaria sanguinalis, pre-emergence, 336 h, pre-emerge, phytotoxicity rating 0-100 at 14 days after application, read-out: Pre-emerge Herbicidal Activity DIGSA; for pest or weed control at 63 g/ha: rate 63 g ai/ha; for pest or weed control at 250 g/ha: rate 250 g ai/ha
Summary of the method: (§1)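 Compounds in acetone were track-sprayed at 15–1000 g ai/ha: pre-emergence onto soil sown the previous day, then top-watered to incorporate and later bottom-watered; post-emergence onto 2–3 leaf plants with 0.25% v/v surfactant, bottom-watered only. Ratings on a 0–100 phytotoxicity scale were taken at day 14.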

[2] = tested on: ivyleaf morningglory (Ipomoea hederacea, IPOHE); assay: as above; conditions: Ipomoea, pre-emergence, 336 h, pre-emerge, phytotoxicity rating 0-100 at 14 days after application, read-out: Pre-emerge Herbicidal Activity IPOHE; for pest or weed control at 63 g/ha: rate 63 g ai/ha; for pest or weed control at 250 g/ha: rate 250 g ai/ha
Summary of the method: as §1

[3] = tested on: lambsquarters (Chenopodium album, CHEAL); assay: as above; conditions: Chenopodium album, pre-emergence, 336 h, pre-emerge, phytotoxicity rating 0-100 at 14 days after application, read-out: Pre-emerge Herbicidal Activity CHEAL; for pest or weed control at 63 g/ha: rate 63 g ai/ha; for pest or weed control at 250 g/ha: rate 250 g ai/ha
Summary of the method: as §1

[4] = tested on: velvetleaf (Abutilon theophrasti, ABUTH); assay: as above; conditions: Abutilon theophrasti, pre-emergence, 336 h, pre-emerge, phytotoxicity rating 0-100 at 14 days after application, read-out: Pre-emerge Herbicidal Activity ABUTH; for pest or weed control at 63 g/ha: rate 63 g ai/ha; for pest or weed control at 250 g/ha: rate 250 g ai/ha
Summary of the method: as §1

[5] = tested on: sicklepod (Cassia obtusifolia, CASOB); assay: as above; conditions: Senna obtusifolia, pre-emergence, 336 h, pre-emerge, phytotoxicity rating 0-100 at 14 days after application, read-out: Pre-emerge Herbicidal Activity CASOB; for pest or weed control at 63 g/ha: rate 63 g ai/ha; for pest or weed control at 250 g/ha: rate 250 g ai/ha
Summary of the method: as §1

[6] = tested on: johnsongrass (Sorghum halepense, SORHA); assay: as above; conditions: Sorghum halepense, pre-emergence, 336 h, pre-emerge, phytotoxicity rating 0-100 at 14 days after application, read-out: Pre-emerge Herbicidal Activity SORHA; for pest or weed control at 63 g/ha: rate 63 g ai/ha; for pest or weed control at 250 g/ha: rate 250 g ai/ha
Summary of the method: as §1

[7] = tested on: barnyardgrass (Echinochloa crus-galli, ECHCG); assay: as above; conditions: Echinochloa crus-galli, pre-emergence, 336 h, pre-emerge, phytotoxicity rating 0-100 at 14 days after application, read-out: Pre-emerge Herbicidal Activity ECHCG; for pest or weed control at 63 g/ha: rate 63 g ai/ha; for pest or weed control at 250 g/ha: rate 250 g ai/ha
Summary of the method: as §1

[8] = tested on: green foxtail (Setaria viridis, SETVI); assay: as above; conditions: Setaria viridis, pre-emergence, 336 h, pre-emerge, phytotoxicity rating 0-100 at 14 days after application, read-out: Pre-emerge Herbicidal Activity SETVI; for pest or weed control at 63 g/ha: rate 63 g ai/ha; for pest or weed control at 250 g/ha: rate 250 g ai/ha
Summary of the method: as §1

[9] = tested on: ivyleaf morningglory (Ipomoea hederacea, IPOHE); assay: Post-emerge test, greenhouse herbicide activity screening; conditions: Ipomoea, post-emergence, 336 h, post-emerge, phytotoxicity rating 0-100 at 14 days after application, read-out: Post-emerge Herbicidal Activity IPOHE; for pest or weed control at 63 g/ha: 63 g ai/ha; for pest or weed control at 250 g/ha: 250 g ai/ha
Summary of the method: (§2)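 Herbicidal damage is scored 0 (none) to 100 (complete plant death) two weeks after a simulated field spray. Rates span 15–1000 g ai/ha, delivered in acetone at 187 l/ha. For post-emergence treatments, plants have 2–3 leaves and the spray carries 0.25% v/v non-ionic surfactant.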

[10] = tested on: lambsquarters (Chenopodium album, CHEAL); assay: as above; conditions: Chenopodium album, post-emergence, 336 h, post-emerge, phytotoxicity rating 0-100 at 14 days after application, read-out: Post-emerge Herbicidal Activity CHEAL; for pest or weed control at 63 g/ha: 63 g ai/ha; for pest or weed control at 250 g/ha: 250 g ai/ha
Summary of the method: as §2

[11] = tested on: velvetleaf (Abutilon theophrasti, ABUTH); assay: as above; conditions: Abutilon theophrasti, post-emergence, 336 h, post-emerge, phytotoxicity rating 0-100 at 14 days after application, read-out: Post-emerge Herbicidal Activity ABUTH; for pest or weed control at 63 g/ha: 63 g ai/ha; for pest or weed control at 250 g/ha: 250 g ai/ha
Summary of the method: as §2

[12] = tested on: sicklepod (Cassia obtusifolia, CASOB); assay: as above; conditions: Senna obtusifolia, post-emergence, 336 h, post-emerge, phytotoxicity rating 0-100 at 14 days after application, read-out: Post-emerge Herbicidal Activity CASOB; for pest or weed control at 63 g/ha: 63 g ai/ha; for pest or weed control at 250 g/ha: 250 g ai/ha
Summary of the method: as §2

[13] = tested on: johnsongrass (Sorghum halepense, SORHA); assay: as above; conditions: Sorghum halepense, post-emergence, 336 h, post-emerge, phytotoxicity rating 0-100 at 14 days after application, read-out: Post-emerge Herbicidal Activity SORHA; for pest or weed control at 63 g/ha: 63 g ai/ha; for pest or weed control at 250 g/ha: 250 g ai/ha
Summary of the method: as §2

[14] = tested on: barnyardgrass (Echinochloa crus-galli, ECHCG); assay: as above; conditions: Echinochloa crus-galli, post-emergence, 336 h, post-emerge, phytotoxicity rating 0-100 at 14 days after application, read-out: Post-emerge Herbicidal Activity ECHCG; for pest or weed control at 63 g/ha: 63 g ai/ha; for pest or weed control at 250 g/ha: 250 g ai/ha
Summary of the method: as §2

[15] = tested on: green foxtail (Setaria viridis, SETVI); assay: as above; conditions: Setaria viridis, post-emergence, 336 h, post-emerge, phytotoxicity rating 0-100 at 14 days after application, read-out: Post-emerge Herbicidal Activity SETVI; for pest or weed control at 63 g/ha: 63 g ai/ha; for pest or weed control at 250 g/ha: 250 g ai/ha
Summary of the method: as §2

Cc1nn(-c2c(Cl)cc(Cl)c(N)c2N)c(=O)n1C(F)F [Compound 6-20]
40%: pest or weed control at 250 g/ha [9]
50%: pest or weed control at 63 g/ha [3] | pest or weed control at 250 g/ha [11]
60%: pest or weed control at 250 g/ha [10]
30%: pest or weed control at 250 g/ha [3]
0%: pest or weed control at 63 g/ha [1] | pest or weed control at 250 g/ha [1] | pest or weed control at 63 g/ha [2] | pest or weed control at 250 g/ha [2] | pest or weed control at 63 g/ha [4] | pest or weed control at 250 g/ha [4] | pest or weed control at 63 g/ha [5] | pest or weed control at 250 g/ha [5] | pest or weed control at 63 g/ha [6] | pest or weed control at 250 g/ha [6] | pest or weed control at 63 g/ha [7] | pest or weed control at 250 g/ha [7] | pest or weed control at 63 g/ha [8] | pest or weed control at 250 g/ha [8] | pest or weed control at 63 g/ha [9] | pest or weed control at 63 g/ha [10] | pest or weed control at 63 g/ha [11] | pest or weed control at 63 g/ha [12] | pest or weed control at 250 g/ha [12] | pest or weed control at 63 g/ha [13] | pest or weed control at 250 g/ha [13] | pest or weed control at 63 g/ha [14] | pest or weed control at 250 g/ha [14] | pest or weed control at 63 g/ha [15] | pest or weed control at 250 g/ha [15]

Cc1nn(-c2c(N)cc(Cl)cc2F)c(=O)n1C(F)F [Compound 6-22]
10%: pest or weed control at 250 g/ha [6] | pest or weed control at 63 g/ha [8]
0%: pest or weed control at 63 g/ha [1] | pest or weed control at 63 g/ha [2] | pest or weed control at 250 g/ha [2] | pest or weed control at 63 g/ha [5] | pest or weed control at 63 g/ha [6] | pest or weed control at 63 g/ha [7] | pest or weed control at 250 g/ha [7] | pest or weed control at 63 g/ha [12] | pest or weed control at 250 g/ha [12] | pest or weed control at 63 g/ha [13] | pest or weed control at 250 g/ha [13] | pest or weed control at 63 g/ha [14] | pest or weed control at 250 g/ha [14] | pest or weed control at 63 g/ha [15] | pest or weed control at 250 g/ha [15]
40%: pest or weed control at 63 g/ha [3]
20%: pest or weed control at 250 g/ha [1] | pest or weed control at 63 g/ha [4] | pest or weed control at 63 g/ha [9]
50%: pest or weed control at 250 g/ha [8] | pest or weed control at 63 g/ha [10]
60%: pest or weed control at 250 g/ha [5] | pest or weed control at 63 g/ha [11]
100%: pest or weed control at 250 g/ha [3] | pest or weed control at 250 g/ha [4]
80%: pest or weed control at 250 g/ha [11]
70%: pest or weed control at 250 g/ha [9] | pest or weed control at 250 g/ha [10]

COc1c(Cl)cc(F)c(-c2nn(C)c(C(F)(F)F)c2Cl)c1NC(=O)C=Cc1ccccc1 [Compound 7-15]
100%: pest or weed control at 63 g/ha [3] | pest or weed control at 250 g/ha [3] | pest or weed control at 63 g/ha [10] | pest or weed control at 250 g/ha [10] | pest or weed control at 63 g/ha [11]
99%: pest or weed control at 250 g/ha [11]
0%: pest or weed control at 63 g/ha [1] | pest or weed control at 63 g/ha [2] | pest or weed control at 63 g/ha [5] | pest or weed control at 63 g/ha [6] | pest or weed control at 63 g/ha [7] | pest or weed control at 63 g/ha [8] | pest or weed control at 63 g/ha [13] | pest or weed control at 250 g/ha [13] | pest or weed control at 63 g/ha [14]
80%: pest or weed control at 250 g/ha [12]
60%: pest or weed control at 250 g/ha [1] | pest or weed control at 250 g/ha [8]
90%: pest or weed control at 250 g/ha [4]
10%: pest or weed control at 250 g/ha [5] | pest or weed control at 250 g/ha [7] | pest or weed control at 250 g/ha [14] | pest or weed control at 63 g/ha [15] | pest or weed control at 250 g/ha [15]
40%: pest or weed control at 63 g/ha [4] | pest or weed control at 63 g/ha [12]
20%: pest or weed control at 250 g/ha [6]
50%: pest or weed control at 250 g/ha [2]
70%: pest or weed control at 63 g/ha [9] | pest or weed control at 250 g/ha [9]

Nc1c(O)c(Cl)cc(F)c1N1C(=O)C2=C(CCCC2)C1=O [Compound 8-2, 2-amino-6-chloro-4-fluoro-3-tetrahydrophthalimido)phenol]
0%: pest or weed control at 63 g/ha [1] | pest or weed control at 63 g/ha [2] | pest or weed control at 250 g/ha [2] | pest or weed control at 63 g/ha [5] | pest or weed control at 63 g/ha [6] | pest or weed control at 63 g/ha [7] | pest or weed control at 250 g/ha [13]
100%: pest or weed control at 250 g/ha [3] | pest or weed control at 250 g/ha [4] | pest or weed control at 250 g/ha [8] | pest or weed control at 63 g/ha [11] | pest or weed control at 250 g/ha [11]
30%: pest or weed control at 250 g/ha [12] | pest or weed control at 250 g/ha [14]
40%: pest or weed control at 250 g/ha [7] | pest or weed control at 63 g/ha [10] | pest or weed control at 63 g/ha [15]
20%: pest or weed control at 250 g/ha [6] | pest or weed control at 63 g/ha [8] | pest or weed control at 63 g/ha [14]
10%: pest or weed control at 63 g/ha [13]
90%: pest or weed control at 250 g/ha [5] | pest or weed control at 250 g/ha [9]
80%: pest or weed control at 63 g/ha [3] | pest or weed control at 63 g/ha [4] | pest or weed control at 250 g/ha [10]
70%: pest or weed control at 250 g/ha [1]
50%: pest or weed control at 63 g/ha [9] | pest or weed control at 63 g/ha [12]
60%: pest or weed control at 250 g/ha [15]

From patent US6355799B1, “Substituted benzene compounds, process for their preparation, and herbicidal and defoliant compositions containing them” (ISK Americas Incorporated, priority 1997, dated 2002)
